Source: US8999322B2, “Compositions and methods for modulating hemostasis” (The United States of America National Institutes of Health …, priority 2005, dated 2015)

Key:
IITAT = molecular target: T1, IITAT (Homo sapiens, UniProt P00734, E366T/I364T/V365A); assay: Rescue of IITAT cleavage at Arg-271 by DAPA (areas under mIIa progress curves); type: biochemical; settings: DAPA 0-300 μM; 5.4 μM IITAT, 0.8 nM prothrombinase; read-out: DAPA concentration for half-maximal effect on rescue of second half-reaction in IITAT cleavage
T1 construct: made in house
Description: Reaction mixtures prepared in assay buffer and maintained at 25° C., contained 5.4 μM IIWT, IITAT, or IIQ155,Q284, 20 μM PCPS, 28 nM Va, and indicated concentrations of DAPA. Cleavage was initiated by the addition of 0.8 nM Xa and samples (15 μl), withdrawn at the indicated times, were quenched by mixing with an equal volume of 2 NuPAGE LDS sample buffer (Invitrogen) containing 50 mM EDTA. Quenched samples were treated with 71 mM DTT, heated at 89° C. for 5 min, and subjected to electrophoresis (4.2 μg protein per lane) by using NuPAGE 4-12% gels and Mes running buffer (Invitrogen). Protein bands visualized by staining with Coomassie brilliant blue R-250 were imaged and analyzed by quantitative densitometry by using procedures described in detail in refs. 4 and 15. Analysis of the cleavage of FPR-IIQ320 and NaSCN-treated IIQ320 was performed as described above except that reaction mixtures contained 5.8 μM prothrombin variant, 50 μM PCPS, 60 nM Va, 40 μM DAPA, and 1 nM Xa.
Effects of DAPA were assessed by integrating areas under the progress curves for mIIa formation and its disappearance for the different prothrombin variants (FIG. 5). Normalized areas obtained in the activation of IIWT or IIQ155,Q284 were identical and were independent of DAPA varied between 0 and 300 μM for IIQ155,Q284 or 20 and 300 μM for IIWT. […]

mIIa = settings: read-out: Kd of DAPA for mIIa; cited from earlier work
IIaWT = molecular target: T2, IIaWT (Homo sapiens, UniProt P00734); assay: Binding of DAPA to thrombin variants (fluorescence); settings: fluorescence studies, data not shown
T2 construct: yielding mIIa as the sole intermediate, followed by cleavage at Arg-271 to produce IIa
Description: Front face fluorescence measurements were performed in a plate reader (SpectraMax Gemini, Molecular Devices) by using black polystyrene plates (no. 3650, Corning). Reaction mixtures (100 μl) prepared in assay buffer contained increasing concentrations of DAPA (24 concentrations, 0-100 μM) with no addition, 0.5 μM IIa, or 0.5 μM IIaTAT. […] Subtraction of the intensity measured with DAPA alone yielded the fluorescence change associated with the binding of DAPA to Ha or IIaTAT. Fluorescence data were analyzed as described in ref 7 to infer the equilibrium dissociation constant.

mIIaTAT = molecular target: T3, mIIaTAT (Homo sapiens, UniProt P00734, E366T/I364T/V365A); assay: DAPA binding to zymogen-like mIIaTAT (interpretation of rescue data); settings: possible interpretation of rescue findings
T3 construct: made in house; host or cells: IITAT from HEK293 cells, cleaved in the reaction by prothrombinase
From the text: Ligands that bind with high affinity to the proteinase are established to enhance the ability of the zymogen to adopt a proteinase-like configuration (13, 20, 23). Our findings are consistent with two possible interpretations. […] Alternatively, DAPA could act by selectively binding and favoring the proteinase in an equilibrium between zymogen-like and proteinase-like forms of mIIaTAT in which the zymogen-like state is highly favored.

IIa = settings: read-out: Kd of DAPA for IIa; cited from earlier work

CCC1CCN(C(=O)C(CCCNC(=N)N)NS(=O)(=O)c2cccc3c(N(C)C)cccc23)CC1 [DAPA, dansyl-L-arginine N-(3-ethyl-1,5-pentanediyl)amide]
EC50 (IITAT): ~20 µM | Kd (mIIa): ~0.001 µM | equilibrium dissociation constant of DAPA for IIaWT (IIaWT): nanomolar | Kd (mIIaTAT): 30 µM | Kd (IIa): ~0.001 µM
